Values quoted from earlier work, collected in patent publication US20080221049A1, “Free-flowing lyophilized tobramycin formulation” (APP Pharmaceuticals, LLC., priority 2004, published 2008).
Counter-ions that a name gives are not always drawn. Like-named read-outs stand apart in the source and are kept apart here.

Settings: after reconstitution, e.g. with 30 mL Sterile Water for Injection

SMILES: NCC1OC(OC2C(N)CC(N)C(OC3OC(CO)C(O)C(N)C3O)C2O)C(N)CC1O [Tobramycin sulfate, 0-3-amino-3-deoxy-α-D-glucopyranosyl-(1→4) —O—[2,6-diamino-2,3,6-trideoxy-α-D-ribo-hexopyranosyl-(1→6)]-2-deoxy-L-streptamine, sulfate (2:5)(salt)]
- time within which the reconstituted solution should be used (stored at room temperature): ≤ 24 h
- time within which the reconstituted solution should be used (stored under refrigeration): ≤ 96 h
